Results on one sequence are retold here after publication PMC10846744, “Cathelicidin peptide analogues inhibit EV71 infection through blocking viral entry and uncoating” (PLOS Pathogens, 2024).

The subject of one assay is EV71 virus. The assay can be described thus: Time-of-addition study. The assay is classed as cell-based, enterovirus 71 (EV71). How it is done:
Fig 2 LL-18 and FF-18 inhibit EV71 infection at the early stages of infection. (A-B) NanoLuc-EV71 reporter virus (A) or EV71 virus (MOI = 1, B) was pre-incubated with 1.5 μM LL-18 or FF-18 for 1 hr before they were used to infect RD cells. Luciferase (A) or viral RNA (B) was determined at indicated time points. Viral RNAs were normalized to mock treated cells at 1 h.p.i. ***, P<0.001. (C-E) EV71 virus (MOI = 1) was either pre-incubated with 1.5 μM LL-18 before infection (-2 and -1 time points), added simultaneously with LL-18 (0 time point) or LL-18 was added at indicated time points post-infection (1, 2, 4, 7 time points) and viral VP1 expression (C), cell viability (D), or viral titer (E) was determined 24 h.p.i. ns, not significant; **, P<0.01; ***, P<0.001. (F-H) EV71 virus (MOI = 1) was either pre-incubated with 1.5 μM FF-18 before infection (-2 and -1 time points), added simultaneously with FF-18 (0 time point) or FF-18 was added at indicated time points post-infection (1, 2, 4, 7 time points) and viral VP1 expression (F), cell viability (G), or viral titer (H) was determined 24 h.p.i. ns, not significant; **, P<0.01; ***, P<0.001.
Synthetic peptides were purchased from Bioyears Co. Ltd. (Wuhan, China) with purity of more than 95% and dissolved in PBS. […] Cell viability, viral titer, or viral protein expression was determined 24 h.p.i. […]

The test system of the next assay is CVB5 virus. The assay can be described thus: 1H NMR titration of peptide with CVB5 virus. Conditions: molar ratio peptide to virus 90:1, 800 MHz, 298k. The assay is classed as binding, coxsackievirus B5. The protocol:
The NMR titrations were performed on a Bruker 800 MHz (Avance NEO) spectrometer equipped with cryo-probe. The molar ratio of the peptide to the virus was 90:1. The experiments were recorded using zgespg pulse for 128 scans at 298k and the results were analyzed by Topspin.

Where no end group is shown, it is not given here.

In the case of FRKSKEKIGKLFKRIVQRILDFLRNLV [LL-18], in the assay on EV71 virus, the “inhibition of VP1 expression, virus-induced cell death, virus titer; peptide added after virus infection” value was “little inhibition” and the “inhibition of VP1 expression, virus-induced cell death, virus titer; peptide added before virus infection” value is listed as “Potent inhibition”. For the same sequence, the “interaction of peptide with CVB5 virus by 1H 1D NMR (amide region)” value in the assay with CVB5 virus is listed as “little effect on the spectra of peptides”.
